Here are results for 16 molecules from patent US12577245B2, “Sulfonyl benzamide derivatives as Bcl-2 inhibitors” (ASCENTAGE PHARMA (SUZHOU) CO., LTD., priority 2021, dated 2026).

The experiment deals with Bcl-2 G101V (Homo sapiens, UniProt P10415, G101V). Briefly: Bcl-2 G101V inhibition, fluorescence polarization (Flu-BIM tracer) binding assay. Particulars: FP; 20 nM Bcl2, 5 nM Flu-BIM, 1 h incubation; read-out: Bcl-2 G101V (FP). In general terms: In fluorescence polarisation assays a small probe gives low polarisation when free and higher when bound to something large.
Turning to `CC1(C)CCC(CN2CCN(c3ccc(C(=O)NS(=O)(=O)c4ccc(NCC5CCOCC5)c([N+](=O)[O-])c4)c(Oc4cnc5[nH]ccc5c4)c3)CC2)=C(c2ccc(CN3CCOCC3)s2)C1` [Example 26, 2-((1H-pyrrolo[2,3-b]pyridin-5-yl)oxy)-4-(4-((4,4-dimethyl-2-(5-(morpholinomethyl)thiophen-2-yl)cyclohex-1-en-1-yl)methyl)piperazin-1-yl)-N-((3-nitro-4-(((tetrahydro-2H-pyran-4-yl)methyl)amino)phenyl)sulfonyl)benzamide], the IC50 came to 57.8 nM. The value for `CC1(C)CCC(CN2CCN(c3ccc(C(=O)NS(=O)(=O)c4ccc(NC[C@H]5COCCO5)c([N+](=O)[O-])c4)c(Oc4cnc5[nH]ccc5c4)c3)CC2)=C(c2cc(CN3CCC(N4CCOCC4)CC3)cs2)C1` [Example 28, (S)—N-((4-(((1,4-dioxan-2-yl)methyl)amino)-3-nitrophenyl)sulfonyl)-2-((1H-pyrrolo[2,3-b]pyridin-5-yl)oxy)-4-(4-((4,4-dimethyl-2-(4-((4-morpholinopiperidin-1-yl)methyl)thiophen-2-yl)cyclohex-1-en-1-yl)methyl)piperazin-1-yl)benzamide] was 47 nM. The value for `C[C@@H]1CN(Cc2csc(C3=C(CN4CCN(c5ccc(C(=O)NS(=O)(=O)c6ccc(NC[C@H]7COCCO7)c([N+](=O)[O-])c6)c(Oc6cnc7[nH]ccc7c6)c5)CC4)CCC(C)(C)C3)c2)C[C@H](C)N1C` [Example 29, N-((4-((((S)-1,4-dioxan-2-yl)methyl)amino)-3-nitrophenyl)sulfonyl)-2-((1H-pyrrolo[2,3-b]pyridin-5-yl)oxy)-4-(4-((4,4-dimethyl-2-(4-(((3S,5R)-3,4,5-trimethylpiperazin-1-yl)methyl)thiophen-2-yl)cyclohex-1-en-1-yl)methyl)piperazin-1-yl)benzamide] was 71.3 nM; that for `CC1(C)CCC(CN2CCN(c3ccc(C(=O)NS(=O)(=O)c4ccc(NC[C@H]5COCCO5)c([N+](=O)[O-])c4)c(Oc4cnc5[nH]ccc5c4)c3)CC2)=C(c2cc(CN3CCN4CCOC[C@H]4C3)cs2)C1` [Example 30, N-((4-((((S)-1,4-dioxan-2-yl)methyl)amino)-3-nitrophenyl)sulfonyl)-2-((1H-pyrrolo[2,3-b]pyridin-5-yl)oxy)-4-(4-((2-(4-(((R)-hexahydropyrazino[2,1-c][1,4]oxazin-8(1H)-yl)methyl)thiophen-2-yl)-4,4-dimethylcyclohex-1-en-1-yl)methyl)piperazin-1-yl)benzamide] was 66 nM; that for `CC1(C)CCC(CN2CCN(c3ccc(C(=O)NS(=O)(=O)c4ccc(NC[C@H]5COCCO5)c([N+](=O)[O-])c4)c(Oc4cnc5[nH]ccc5c4)c3)CC2)=C(c2cc(CN3CCN(C4COC4)CC3)cs2)C1` [Example 31, (S)—N-((4-(((1,4-dioxan-2-yl)methyl)amino)-3-nitrophenyl)sulfonyl)-2-((1H-pyrrolo[2,3-b]pyridin-5-yl)oxy)-4-(4-((4,4-dimethyl-2-(4-((4-(oxetan-3-yl)piperazin-1-yl)methyl)thiophen-2-yl)cyclohex-1-en-1-yl)methyl)piperazin-1-yl)benzamide] was 59.2 nM. As to `CC1(C)CCC(CN2CCN(c3ccc(C(=O)NS(=O)(=O)c4ccc(NC[C@H]5COCCO5)c([N+](=O)[O-])c4)c(Oc4cnc5[nH]ccc5c4)c3)CC2)=C(c2cc(CN3CCC(F)(F)CC3)cs2)C1` [Example 32, (S)—N-((4-(((1,4-dioxan-2-yl)methyl)amino)-3-nitrophenyl)sulfonyl)-2-((1H-pyrrolo[2,3-b]pyridin-5-yl)oxy)-4-(4-((2-(4-((4,4-difluoropiperidin-1-yl)methyl)thiophen-2-yl)-4,4-dimethylcyclohex-1-en-1-yl)methyl)piperazin-1-yl)benzamide], the IC50 was 25.7 nM. For `CC1(C)CCC(CN2CCN(c3ccc(C(=O)NS(=O)(=O)c4ccc(NC[C@H]5COCCO5)c([N+](=O)[O-])c4)c(Oc4cnc5[nH]ccc5c4)c3)CC2)=C(c2cc(-c3ccc(F)cc3)cs2)C1` [Example 33, (S)—N-((4-(((1,4-dioxan-2-yl)methyl)amino)-3-nitrophenyl)sulfonyl)-2-((1H-pyrrolo[2,3-b]pyridin-5-yl)oxy)-4-(4-((2-(4-(4-fluorophenyl)thiophen-2-yl)-4,4-dimethylcyclohex-1-en-1-yl)methyl)piperazin-1-yl)benzamide], the IC50 is 33.1 nM. `CC1(C)CCC(CN2CCN(c3ccc(C(=O)NS(=O)(=O)c4ccc(NCC5CCOCC5)c([N+](=O)[O-])c4)c(Oc4cnc5[nH]ccc5c4)c3)CC2)=C(c2cc(-c3ccccc3)cs2)C1` [Example 34, 2-((1H-pyrrolo[2,3-b]pyridin-5-yl)oxy)-4-(4-((4,4-dimethyl-2-(4-phenylthiophen-2-yl)cyclohex-1-en-1-yl)methyl)piperazin-1-yl)-N-((3-nitro-4-(((tetrahydro-2H-pyran-4-yl)methyl)amino)phenyl)sulfonyl)benzamide]: the IC50 was 47.9 nM. Regarding `CC1(C)CCC(CN2CCN(c3ccc(C(=O)NS(=O)(=O)c4ccc(NCC5CCOCC5)c([N+](=O)[O-])c4)c(Oc4cnc5[nH]ccc5c4)c3)CC2)=C(c2ccsc2-c2ccccc2)C1` [Example 35, 2-((1H-pyrrolo[2,3-b]pyridin-5-yl)oxy)-4-(4-((4,4-dimethyl-2-(2-phenylthiophen-3-yl)cyclohex-1-en-1-yl)methyl)piperazin-1-yl)-N-((3-nitro-4-(((tetrahydro-2H-pyran-4-yl)methyl)amino)phenyl)sulfonyl)benzamide], the IC50 is 47.6 nM.

Consider `CC1(C)CCC(CN2CCN(c3ccc(C(=O)NS(=O)(=O)c4ccc(NC[C@H]5CC[C@@](C)(O)CC5)c([N+](=O)[O-])c4)c(Oc4cnc5[nH]ccc5c4)c3)CC2)=C(c2cc(-c3ccc(F)cc3)cs2)C1` [Example 36, 2-((1H-pyrrolo[2,3-b]pyridin-5-yl)oxy)-4-(4-((2-(4-(4-fluorophenyl)thiophen-2-yl)-4,4-dimethylcyclohex-1-en-1-yl)methyl)piperazin-1-yl)-N-((4-((((1s,4s)-4-hydroxy-4-methylcyclohexyl)methyl)amino)-3-nitrophenyl)sulfonyl)benzamide], for which the IC50 amounted to 46.2 nM. Consider `CC1(C)CCC(CN2CCN(c3ccc(C(=O)NS(=O)(=O)c4ccc(NC[C@H]5CC[C@](C)(O)CC5)c([N+](=O)[O-])c4)c(Oc4cnc5[nH]ccc5c4)c3)CC2)=C(c2cc(-c3ccc(F)cc3)cs2)C1` [Example 37, 2-((1H-pyrrolo[2,3-b]pyridin-5-yl)oxy)-4-(4-((2-(4-(4-fluorophenyl)thiophen-2-yl)-4,4-dimethylcyclohex-1-en-1-yl)methyl)piperazin-1-yl)-N-((4-((((1r,4r)-4-hydroxy-4-methylcyclohexyl)methyl)amino)-3-nitrophenyl)sulfonyl)benzamide], for which the IC50 turned out to be 34.9 nM. Take `CC1(C)CCC(CN2CCN(c3ccc(C(=O)NS(=O)(=O)c4ccc(NC[C@H]5COCCO5)c([N+](=O)[O-])c4)c(Oc4cnc5[nH]ccc5c4)c3)CC2)=C(c2cc(-c3ccc(Cl)cc3)cs2)C1` [Example 38, (S)—N-((4-(((1,4-dioxan-2-yl)methyl)amino)-3-nitrophenyl)sulfonyl)-2-((1H-pyrrolo[2,3-b]pyridin-5-yl)oxy)-4-(4-((2-(4-(4-chlorophenyl)thiophen-2-yl)-4,4-dimethylcyclohex-1-en-1-yl)methyl)piperazin-1-yl)benzamide]: the IC50 is 35.4 nM. Regarding `CC(C)c1ccccc1-c1csc(C2=C(CN3CCN(c4ccc(C(=O)NS(=O)(=O)c5ccc(NC[C@H]6COCCO6)c([N+](=O)[O-])c5)c(Oc5cnc6[nH]ccc6c5)c4)CC3)CCC(C)(C)C2)c1` [Example 39, (S)—N-((4-(((1,4-dioxan-2-yl)methyl)amino)-3-nitrophenyl)sulfonyl)-2-((1H-pyrrolo[2,3-b]pyridin-5-yl)oxy)-4-(4-((2-(4-(2-isopropylphenyl)thiophen-2-yl)-4,4-dimethylcyclohex-1-en-1-yl)methyl)piperazin-1-yl)benzamide], the IC50 amounted to 36 nM. Turning to `CC1(C)CCC(CN2CCN(c3ccc(C(=O)NS(=O)(=O)c4ccc(NC[C@H]5COCCO5)c([N+](=O)[O-])c4)c(Oc4cnc5[nH]ccc5c4)c3)CC2)=C(c2cc(-c3ccc(C(F)(F)F)cc3)cs2)C1` [Example 40, (S)—N-((4-(((1,4-dioxan-2-yl)methyl)amino)-3-nitrophenyl)sulfonyl)-2-((1H-pyrrolo[2,3-b]pyridin-5-yl)oxy)-4-(4-((4,4-dimethyl-2-(4-(4-(trifluoromethyl)phenyl)thiophen-2-yl)cyclohex-1-en-1-yl)methyl)piperazin-1-yl)benzamide], the IC50 was found to be 43.4 nM. With `CC1(C)CCC(CN2CCN(c3ccc(C(=O)NS(=O)(=O)c4ccc(NC[C@H]5CC[C@](C)(O)CC5)c([N+](=O)[O-])c4)c(Oc4cnc5[nH]ccc5c4)c3)CC2)=C(c2cc(-c3ccc(C(F)(F)F)cc3)cs2)C1` [Example 41, 2-((1H-pyrrolo[2,3-b]pyridin-5-yl)oxy)-4-(4-((4,4-dimethyl-2-(4-(4-(trifluoromethyl)phenyl)thiophen-2-yl)cyclohex-1-en-1-yl)methyl)piperazin-1-yl)-N-((4-((((1r,4r)-4-hydroxy-4-methylcyclohexyl)methyl)amino)-3-nitrophenyl)sulfonyl)benzamide] the figure was 34.4 nM; with `CC1(C)CCC(CN2CCN(c3ccc(C(=O)NS(=O)(=O)c4ccc(NC[C@H]5COCCO5)c([N+](=O)[O-])c4)c(Oc4cnc5[nH]ccc5c4)c3)CC2)=C(c2cc(-c3ccc(F)cc3F)cs2)C1` [Example 42, (S)—N-((4-(((1,4-dioxan-2-yl)methyl)amino)-3-nitrophenyl)sulfonyl)-2-((1H-pyrrolo[2,3-b]pyridin-5-yl)oxy)-4-(4-((2-(4-(2,4-difluorophenyl)thiophen-2-yl)-4,4-dimethylcyclohex-1-en-1-yl)methyl)piperazin-1-yl)benzamide], 50.7 nM.
